Measurements reported in US20230043863A1, “HETEROAROMATIC DERIVATIVES FOR USE AS REGULATOR, PREPARATION METHOD THEREFOR AND USE THEREOF” (JIANGSU HANSOH PHARMACEUTICAL GROUP CO., LTD., priority 2018, published 2023).

What was measured:
TYK2 = TYK2 (Homo sapiens, UniProt P29597); assay: JAK kinase activity inhibition, TR-FRET (TYK2); assay type: biochemical; details: TR-FRET kinase assay
In short: (§1)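 Steps: compound dilutions added; JAK kinase (0.1-20 nM) in HEPES/MgCl2 buffer added; peptide substrate and ATP mix started the reaction, 0.5-5 h at room temperature; EDTA and labeled antibody added, 1-24 h further. IC50 derived from 620/665 nm signals by four-parameter nonlinear fitting.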

JAK1 = JAK1 (Homo sapiens, UniProt P23458); assay: JAK kinase activity inhibition, TR-FRET (JAK1); assay type: biochemical; details: TR-FRET kinase assay
In short: as §1

[1] = tested on: JAK-STAT signal pathway of U266 cells; assay: Inhibition of cellular JAK-STAT signal pathway (STAT3 phosphorylation) in U266 cells; assay type: cell-based, human
Protocol: The objective of the test is to test the inhibitory activity of the compound on the cellular JAK-STAT signaling pathway.
U266 cell line was used in this experiment, by activating the JAK-STAT signaling pathway through INF-a stimulation, the inhibitory activity of the compound on its downstream STAT3 phosphorylation was detected, and the half inhibitory concentration IC50 of the compound on the JAK-STAT signaling pathway activity was obtained.
3-12 μL of U266 cell line was spread into the 384-well detection plate, and the number of cells in each well was 100-300 K, followed by addition of 2 μL of the compound solution serially diluted. The plate was incubated for 2 hours with shaking at 350 rpm at room temperature. After 2 hours, 2 μL of INF-a with a final concentration of 1000 U/mL was added. The plate was shaken at room temperature for 15 minutes. 2-5 μL (5×) LANCE Ultra Lysis Buffer 2 solution was added and the plate was shaken at room temperature for 2 hours. After 2 hours, 5 μL of LANCE Ultra Eu-labeled Anti-STAT3 Antibody (PerkinElmer) with a final concentration of 0.5 nM and LANCE Ultra ULight-labeled Anti-STAT3 Antibody (PerkinElmer) with a final concentration of 5 nM were added, and the plate was incubated overnight at room temperature. The fluorescence signal value at 665 nm of each well was measured with the microplate reader, and the inhibition rate was calculated from the fluorescence signal value. According to the inhibition rate of different concentrations, the IC50 of the compound was obtained by curve fitting.
The percentage inhibition data of the wells treated with the compound was calculated with the positive control wells (DMSO control wells) and negative control wells (no kinase added) on the plate {% inhibition rate=100-[(test compound value-negative control value)]/(Positive control value-negative control value)×100}. IC50 value was calculated by using GraphPad prism to fit the data of different concentrations and corresponding percentage inhibition rates to a 4-parameter non-linear logic formula.

[2] = Homo sapiens, U-266, INF-a 1000 U/mL stimulation

Sequence of JAK1 (P23458 whole entry): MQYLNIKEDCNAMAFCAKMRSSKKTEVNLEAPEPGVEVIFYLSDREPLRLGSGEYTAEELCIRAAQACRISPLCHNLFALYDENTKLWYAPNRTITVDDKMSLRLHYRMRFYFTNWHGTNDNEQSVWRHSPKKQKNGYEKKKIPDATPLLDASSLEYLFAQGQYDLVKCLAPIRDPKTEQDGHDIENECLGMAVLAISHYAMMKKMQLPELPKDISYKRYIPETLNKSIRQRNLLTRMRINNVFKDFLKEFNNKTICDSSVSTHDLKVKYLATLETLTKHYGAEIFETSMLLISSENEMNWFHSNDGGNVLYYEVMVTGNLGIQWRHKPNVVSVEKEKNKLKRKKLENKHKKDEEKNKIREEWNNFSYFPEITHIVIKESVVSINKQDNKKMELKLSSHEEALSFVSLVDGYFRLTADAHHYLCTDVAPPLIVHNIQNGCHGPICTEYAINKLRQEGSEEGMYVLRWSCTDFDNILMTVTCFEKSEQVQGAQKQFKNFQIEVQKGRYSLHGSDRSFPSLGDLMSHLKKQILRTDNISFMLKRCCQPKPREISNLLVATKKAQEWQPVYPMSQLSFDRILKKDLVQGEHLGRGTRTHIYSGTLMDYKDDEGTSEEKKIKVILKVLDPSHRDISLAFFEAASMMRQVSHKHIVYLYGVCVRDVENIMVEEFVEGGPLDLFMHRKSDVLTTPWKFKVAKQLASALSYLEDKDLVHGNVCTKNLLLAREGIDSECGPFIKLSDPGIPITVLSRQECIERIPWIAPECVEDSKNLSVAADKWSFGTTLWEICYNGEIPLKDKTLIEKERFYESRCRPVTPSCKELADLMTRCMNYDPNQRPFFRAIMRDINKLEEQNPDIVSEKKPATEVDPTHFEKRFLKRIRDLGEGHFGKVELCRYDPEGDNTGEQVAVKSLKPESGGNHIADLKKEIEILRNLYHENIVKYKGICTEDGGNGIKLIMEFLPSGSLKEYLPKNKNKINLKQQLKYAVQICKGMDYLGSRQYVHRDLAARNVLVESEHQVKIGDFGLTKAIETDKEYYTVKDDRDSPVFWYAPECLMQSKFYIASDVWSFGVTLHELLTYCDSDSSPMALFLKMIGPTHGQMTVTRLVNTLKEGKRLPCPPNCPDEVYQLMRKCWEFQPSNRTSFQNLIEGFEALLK
Sequence of TYK2 (P29597 whole entry): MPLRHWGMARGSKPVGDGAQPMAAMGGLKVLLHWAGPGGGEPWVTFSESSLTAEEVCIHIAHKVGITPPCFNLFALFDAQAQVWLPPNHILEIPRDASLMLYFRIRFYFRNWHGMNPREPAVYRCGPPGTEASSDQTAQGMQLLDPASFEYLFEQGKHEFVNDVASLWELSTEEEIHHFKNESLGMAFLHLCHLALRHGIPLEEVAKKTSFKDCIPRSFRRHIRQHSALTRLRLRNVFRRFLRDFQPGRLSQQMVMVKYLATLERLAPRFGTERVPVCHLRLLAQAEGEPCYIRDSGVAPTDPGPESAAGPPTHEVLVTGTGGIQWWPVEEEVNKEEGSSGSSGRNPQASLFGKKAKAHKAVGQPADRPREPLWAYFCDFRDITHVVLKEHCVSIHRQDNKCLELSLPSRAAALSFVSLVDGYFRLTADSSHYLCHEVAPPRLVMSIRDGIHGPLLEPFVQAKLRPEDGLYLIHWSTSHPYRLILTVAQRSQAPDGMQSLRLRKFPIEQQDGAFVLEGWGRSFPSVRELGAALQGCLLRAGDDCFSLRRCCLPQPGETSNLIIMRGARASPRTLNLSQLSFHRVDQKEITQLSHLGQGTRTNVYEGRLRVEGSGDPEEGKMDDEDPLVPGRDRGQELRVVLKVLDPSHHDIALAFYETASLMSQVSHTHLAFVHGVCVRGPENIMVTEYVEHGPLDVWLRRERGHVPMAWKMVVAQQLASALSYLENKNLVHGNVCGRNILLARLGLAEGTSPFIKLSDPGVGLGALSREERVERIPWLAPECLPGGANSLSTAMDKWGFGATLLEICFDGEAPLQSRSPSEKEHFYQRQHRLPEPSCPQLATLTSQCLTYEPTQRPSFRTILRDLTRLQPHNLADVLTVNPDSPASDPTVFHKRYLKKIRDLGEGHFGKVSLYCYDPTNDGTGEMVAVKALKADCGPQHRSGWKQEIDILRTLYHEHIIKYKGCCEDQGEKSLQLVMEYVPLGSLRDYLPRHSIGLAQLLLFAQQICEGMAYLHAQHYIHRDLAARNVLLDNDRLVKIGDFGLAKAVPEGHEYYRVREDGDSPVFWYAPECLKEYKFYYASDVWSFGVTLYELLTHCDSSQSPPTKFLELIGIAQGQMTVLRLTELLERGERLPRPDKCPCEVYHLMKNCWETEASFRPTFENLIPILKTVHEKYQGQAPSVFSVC

| SMILES | IC50 (TYK2) [nM] | IC50 (JAK1) [nM] | IC50 [1, 2] [nM] | IC50 ([1]; INF-a 1000 U/mL stimulation) [nM] |
| --- | --- | --- | --- | --- |
| Cc1cc(Nc2nc(N[C@@H]3C[C@H]4CC[C@@H](C3)N4S(=O)(=O)N3CC(C#N)C3)nc3cccnc23)n[nH]1 [Embodiment 220, 1-(((3-exo)-3-((4-((5-methyl-1H-pyrazol-3-yl)amino)pyrido[3,2-d]pyrimidin-2-yl)amino)-8-azabicyclo[3.2.1]oct-8-yl)sulfonyl)azetindin-3-formonitrile] | 4.27 | 0.67 | 10.2 | – |
| CN(c1nc(Nc2cc(CO)[nH]n2)c2ccc(Cl)cc2n1)[C@@H]1C[C@H]2CCC[C@@H](C1)N2CCC#N [Embodiment 235, 3-((3-exo)-3-((7-chloro-4-((5-(hydroxymethyl)-1H-pyrazol-3-yl)amino)quinazolin-2-yl)(methyl)amino)-9-azabicyclo[3.3.1]non-9-yl)propionitrile] | 2.71 | 3.33 | 44.4 | – |
| Cc1cc(Nc2nc(N(C)[C@@H]3C[C@H]4CC[C@@H](C3)N4S(=O)(=O)N3CC(C#N)C3)nc3sc(C)cc23)n[nH]1 [Embodiment 240, 1-(((3-exo)-3-(methyl(6-methyl-4-((5-methyl-1H-pyrazol-3-yl)amino)thieno[2,3-d]pyrimidin-2-yl)amino)-8-azabicyclo[3.2.1]oct-8-yl)sulfonyl)azetindin-3-formonitrile] | 0.68 | 0.49 | 14.4 | – |
| Cc1cc(Nc2nc(N(C)[C@@H]3C[C@H]4CC[C@@H](C3)N4C(=O)CN3CCOCC3)nc3sccc23)n[nH]1 [Embodiment 245, 1-((3-exo)-3-(methyl(4-((5-methyl-1H-pyrazol-3-yl)amino)thieno[2,3-d]pyrimidin-2-yl)amino)-8-azabicyclo[3.2.1]oct-8-yl)-2-morpholinoethane-1-one] | 2.76 | 2.77 | – | 16.7 |
| Cc1cc(Nc2nc(N[C@@H]3C[C@H]4CC[C@@H](C3)N4C(=O)[C@H]3CCCN3)nc3sccc23)n[nH]1 [Embodiment 248, ((3-exo)-3-((4-((5-methyl-1H-pyrazol-3-yl)amino)thieno[2,3-d]pyrimidin-2-yl)amino)-9-azabicyclo[3.3.1]non-9-yl) ((R)-pyrrolidin-2-yl)methanone] | 0.36 | 0.44 | 43.5 | – |
| Cc1cc(Nc2nc(N[C@@H]3C[C@H]4CCC[C@@H](C3)N4C(=O)[C@H]3COCCN3)nc3sccc23)n[nH]1 [Embodiment 250, ((3-exo)-3-((4-((5-methyl-1H-pyrazol-3-yl)amino)thieno[2,3-d]pyrimidin-2-yl)amino)-9-azabicyclo[3.3.1]non-9-yl)((R)-morpholine-3-yl)methanone] | 0.07 | 0.04 | 7.3 | – |
| CCNCC(=O)N1[C@@H]2CC[C@H]1C[C@H](Nc1nc(Nc3cc(C)[nH]n3)c3ccsc3n1)C2 [Embodiment 255, 2-(ethylamino)-1-((3-exo)-3-((4-((5-methyl-1H-pyrazol-3-yl)amino)thieno[2,3-d]pyrimidin-2-yl)amino)-8-azabicyclo[3.2.1]oct-8-yl)ethane-1-one] | 2.38 | 1.17 | 8.67 | – |
| Cc1cc(Nc2nc(N[C@@H]3C[C@H]4CCC[C@@H](C3)N4C(=O)CN3CCN(C)CC3)nc3sccc23)n[nH]1 [Embodiment 258, 1-((3-exo)-3-((4-((5-methyl-1H-pyrazol-3-yl)amino)thieno[2,3-d]pyrimidin-2-yl)amino)-9-azabicyclo[3.3.1]non-9-yl)-2-(4-methylpiperazin-1-yl)ethane-1-one] | 0.61 | 0.27 | 32.7 | – |
| Cc1cc(Nc2nc(N[C@@H]3C[C@H]4CCC[C@@H](C3)N4C(=O)c3cccnc3)nc3sccc23)n[nH]1 [Embodiment 261, ((3-exo)-3-((4-((5-methyl-1H-pyrazol-3-yl)amino)thieno[2,3-d]pyrimidin-2-yl)amino)-9-azabicyclo[3.3.1]non-9-yl)(pyridin-3-yl)methanone] | 5.58 | 0.04 | 10.6 | – |
| Cc1cc(Nc2nc(N[C@@H]3C[C@H]4CCC[C@@H](C3)N4C(=O)c3cn(C)cn3)nc3sccc23)n[nH]1 [Embodiment 264, (1-methyl-1H-imidazol-4-yl) ((3-exo)-3-((4-((5-methyl-1H-pyrazol-3-yl)amino)thieno[2,3-d]pyrimidin-2-yl)amino)-9-azabicyclo[3.3.1]non-9-yl)methanone] | 0.48 | 0.19 | 33.5 | – |
| Cc1cc(Nc2nc(N[C@@H]3C[C@H]4CCC[C@@H](C3)N4S(=O)(=O)c3cccnc3)nc3sccc23)n[nH]1 [Embodiment 268] | 0.19 | 0.21 | 42.9 | – |
| Cc1cc(Nc2nc(N[C@@H]3C[C@H]4CCC[C@@H](C3)N4CC(=O)N(C)C)nc3sccc23)n[nH]1 [Embodiment 270, N,N-dimethyl-2-((3-exo)-3-((4-((5-methyl-1H-pyrazol-3-yl)amino)thieno[2,3-d]pyrimidin-2-yl)amino)-9-azabicyclo[3.3.1]non-9-yl)acetamide] | 5.78 | 1.22 | 14.3 | – |
| Cc1cc(Nc2nc(N[C@@H]3C[C@H]4CCC[C@@H](C3)N4Cc3ccccn3)nc3sccc23)n[nH]1 [Embodiment 271] | 4.91 | 0.05 | 1.49 | – |
| Cc1cc(Nc2nc(N[C@@H]3C[C@H]4CCC[C@@H](C3)N4Cc3nccn3C)nc3sccc23)n[nH]1 [Embodiment 272, N^2-((3-exo)-9-((1-methyl-1H-imidazol-2-yl)methyl)-9-azabicyclo[3.3.1]non-3-yl)-N^4-(5-methyl-1H-pyrazol-3-yl)thieno[2,3-d]pyrimidin-2,4-diamine] | 24.7 | 0.6 | 15.3 | – |
| Cc1cc(Nc2nc(O[C@@H]3C[C@H]4CC[C@@H](C3)N4CCC#N)nc3sccc23)n[nH]1 [Embodiment 279, 3-((3-exo)-3-((4-((5-methyl-1H-pyrazol-3-yl)amino)thieno[2,3-d]pyrimidin-2-yl)oxo)-8-azabicyclo[3.2.1]oct-8-yl)propionitrile] | 0.66 | 0.24 | 2.2 | – |
| Cc1cc(Nc2nc(N[C@@H]3C[C@H]4CC[C@@H](C3)N4S(=O)(=O)N3CC(C#N)C3)nc3ccsc23)n[nH]1 [Embodiment 285] | 0.51 | 0.17 | 42 | – |
| Cc1cc(Nc2nc(N[C@@H]3C[C@H]4CC[C@@H](C3)N4C(=O)CN(C)C)nc3ccsc23)n[nH]1 [Embodiment 287, 2-(dimethylamine)-1-((3-exo)-3-((4-((5-methyl-1H-pyrazol-3-yl)amino)thieno[3,2-d]pyrimidin-2-yl)amino)-8-azabicyclo[3.2.1]oct-8-yl)ethane-1-one] | 4.21 | 0.58 | 10.5 | – |
| Cc1cc(Nc2nc(N[C@@H]3C[C@H]4CC[C@@H](C3)N4CC(=O)N(C)C)nc3ccsc23)n[nH]1 [Embodiment 293, N,N-dimethyl-2-((3-exo)-3-((4-((5-methyl-1H-pyrazol-3-yl)amino)thieno[3,2-d]pyrimidin-2-yl)amino)-8-azabicyclo[3.2.1]oct-8-yl)acetamide] | 10.8 | 3.97 | 16.5 | – |
| Cc1cc2nc(N[C@@H]3C[C@H]4CCC[C@@H](C3)N4CCC#N)nc(Nc3cc(CO)[nH]n3)c2s1 [Embodiment 294] | 0.23 | 0.64 | 15.3 | – |
